Measurements as given in publication PMC8201479, “Trisubstituted Pyrrolinones as Small-Molecule Inhibitors Disrupting the Protein–RNA Interaction of LIN28 and Let-7” (ACS Medicinal Chemistry Letters, 2021).

What was measured:
[1] = target: T1, LIN28–let-7 interaction (Homo sapiens, UniProt Q9H9Z2); assay: Fluorescence polarization (FP) assay, LIN28A (residues 16–187) and FAM-labeled preE-let-7f-1; assay type: binding; conditions: text and figures; C-labels = library sample, PH-labels = in-house resynthesized; read-out: IC50 in the FP assay
T1 construct: Purified LIN28A (residues 16–187) was incubated at a concentration of 200 nM; His-tag (cleaved yes); made in house; host or cells: Escherichia coli BL21(DE3)
T1 sequence (Q9H9Z2 16-187): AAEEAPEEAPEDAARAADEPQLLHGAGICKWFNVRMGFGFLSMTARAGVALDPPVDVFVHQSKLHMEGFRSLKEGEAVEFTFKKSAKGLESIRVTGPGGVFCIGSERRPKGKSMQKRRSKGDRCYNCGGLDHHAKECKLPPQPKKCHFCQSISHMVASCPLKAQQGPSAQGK
Description: Protein expression and purification.
19 vector and overexpressed in Escherichia coli BL21(DE3). The culture was incubated at 37 °C until
the absorbance at 600 nm (OD600) reached 0.5–0.7. IPTG was added to a final concentration of
300 µM, and overnight induction was performed at 18 °C. Cells were harvested by centrifugation.
The bacterial pellet was resuspended in lysis buffer (50 mM NaH2PO4, pH 7.5, 300 mM NaCl,
0.1 mM PMSF) and lysed using a Microfluidizer (Microfluidics) . A fresh portion of 0.1 mM PMSF
and Triton X-100 (1% final concentration) were added. The lysate was cleared by ultra centrifugation
at 30000 xg and 4 °C for 1 h. The protein purification was performed using immobilized nickel
300 mM NaCl and 5 % glycerol. Gradient elution was performed with a maximum of 0.5 M imidazole.
Subsequently, the affinity tag was cleaved using His6 -TEV-protease and the protease and unspecific
binders were eliminated by a second nickel affinity chromatography. After protein concentration
LIN28A containing fractions were concentrated and applied to a High Load Superdex 75 pg 16/600
column (GE Healthcare) with gel-filtration buffer (30 mM NaH2PO4, pH 7.5, 50 mM NaCl, 5%
glycerol, 2 mM β-ME). The purified protein was concentrated and stored at -80 °C until further
Fluorescence polarization. The fluorescence polarization assay was performed in black low volume
IC50 measurements were performed with three technical
minutes with compound concentrations ranging from 0.3 nM to 100 µM in FP assay buffer (20 mM
Tris, pH 7, 100 mM NaCl, 5 mM MgCl2, 2 mM glutathione (reduced), 0.1 % NP-40). Subsequently,
FAM-labeled preE-let-7f-1 (mus musculus) ([…]-
FAM, synthesized by IDT) was added to a final concentration of 2 nM. Fluorescence polarization
was detected after incubation at room temperature using a TECAN Spark plate reader. Half maximal
inhibitory concentrations (IC50) were determined using GraphPad Prism 7. […]

[2] = tested on: JAR cells; assay: RT-qPCR of mature let-7 in JAR cells; assay type: cell-based, human; conditions: 24 h treatment
Description: differential scanning fluorimetry (nanoDSF) instrument at temperatures between 20 °C and 90 °C and a temperature slope of 1 °C per minute with an excitation power of 50–60 %. A total protein concentration of 30 µM and compound concentrations from 100 µM to 0.78 µM corresponding to […] to 0.039 % DMSO, respectively, were used. Compound and protein were incubated for 45 minutes at room temperature in buffer containing 30 mM NaH2PO4, 50 mM NaCl, 1 mM MgCl2, and 50 µM ZnCl2 at pH 8 and 10 µL sample was loaded to each nanoDSF standard capillary (NanoTemper). The ratio of intrinsic tryptophan fluorescence at 350 nm and 330 nm was measured and the first derivative was determined to detect the inflection points using the software of the device.
RT-qPCR. JAR cells (obtained from DSMZ, German Collection of Microorganisms and Cell Cultures, Braunschweig, Germany, DSMZ no. ACC462)1 were cultured in 24-well plates and treated with the compound (PH-31) for 24 h with a total DMSO concentration of 0.5 % in all wells. RNA was extracted using RNeasy Mini Kit (Qiagen) and 20 ng of total RNA was used for reverse transcription using the TaqMan microRNA Reverse Transcription Kit (Applied Biosystems) following the manufacturer's protocols. […]

IC50 [1]: 18 µM
SMILES: O=C(C1=C(O)C(=O)N(c2ccc(O)c(C(=O)O)c2)C1c1ccc(-c2nccs2)cc1)c1ccc(Br)cc1 (stereo not drawn) [C902/PH-31]
level of mature let-7a [2]: increased levels
level of mature let-7g [2]: increased levels
